Laboratory results from patent US20150344502A1, “CEPHEM COMPOUND” (SHIONOGI & CO., LTD., priority 2012, published 2015).
In brackets after ≈: the same amount, converted by molar mass.

Key:
Assay type in all cases: cell-based
[1] = tested on: E. Coli ATCC BAA-196; experiment: MIC, broth microdilution (CLSI), E. Coli ATCC BAA-196; settings: Escherichia coli, ATCCBAA196; E. Coli ATCC BAA-196, TEM-10, ESBL producing strain; 5×10^5 cfu/mL; cation-adjusted Iso-Sensitest broth containing human Apo-transferrin; read-out: Minimum Inhibitory Concentration (MIC)
Procedure: (§1) Compound (I) of the present invention was evaluated for in vitro antimicrobial activity thereof.
(§2) Measurement of Minimum Inhibitory Concentration (MIC: μg/mL) was conducted according to CLSI (Clinical and Laboratory Standards Institute) method, and the amount of bacteria for inoculation was 5×10^5 cfu/mL, and cation-adjusted Iso-Sensitest broth containing human Apo-transferrin was used as a test medium, and the experiment was conducted using broth microdilution method.

[2] = tested on: E. Coli ATCC BAA-200; experiment: MIC, broth microdilution (CLSI), E. Coli ATCC BAA-200; settings: Escherichia coli, ATCCBAA200; E. Coli ATCC BAA-200, SHV-4, ESBL producing strain; 5×10^5 cfu/mL; cation-adjusted Iso-Sensitest broth containing human Apo-transferrin; read-out: Minimum Inhibitory Concentration (MIC)
Procedure: as §1, §2

[3] = tested on: E. cloacae 1481026; experiment: MIC, broth microdilution (CLSI), E. cloacae 1481026; settings: Enterobacter cloacae, 5×10^5 cfu/mL, cation-adjusted Iso-Sensitest broth containing human Apo-transferrin, read-out: Minimum Inhibitory Concentration (MIC)
Procedure: as §1, §2

[4] = tested on: P. aeruginosa 378057; experiment: MIC, broth microdilution (CLSI), P. aeruginosa 378057; settings: Pseudomonas aeruginosa, 5×10^5 cfu/mL, cation-adjusted Iso-Sensitest broth containing human Apo-transferrin, read-out: Minimum Inhibitory Concentration (MIC)
Procedure: as §1, §2

[5] = tested on: A. baumannii 1484820; experiment: MIC, broth microdilution (CLSI), A. baumannii 1484820; settings: Acinetobacter baumannii, 5×10^5 cfu/mL, cation-adjusted Iso-Sensitest broth containing human Apo-transferrin, read-out: Minimum Inhibitory Concentration (MIC)
Procedure: as §1, §2

Structure (SMILES): CC(C)(O/N=C(\C(=O)N[C@@H]1C(=O)N2C(C(=O)O)=C(C[N+]34CCC(CN5C(=O)c6ccc(O)c(O)c6C5=O)(CC3)CC4)CS[C@H]12)c1csc(N)n1)C(=O)[O-] [Compound I-5]
- MIC [1]: 0.25 µg/mL (≈ 0.325 µM)
- MIC [2]: 0.25 µg/mL (≈ 0.325 µM)
- MIC [3]: 16 µg/mL (≈ 20.8 µM)
- MIC [4]: ≤ 0.031 µg/mL
- MIC [5]: 1 µg/mL (≈ 1.3 µM)

Structure (SMILES): CC(C)(O/N=C(\C(=O)N[C@@H]1C(=O)N2C(c3nnn[n-]3)=C(C[N+]3(CCN4C(=O)c5ccc(O)c(O)c5C4=O)CCCCC3)CS[C@H]12)c1csc(N)n1)C(=O)[O-].[Na+] [Compound I-15]
- MIC [1]: 0.125 µg/mL
- MIC [2]: 0.125 µg/mL
- MIC [3]: 0.5 µg/mL
- MIC [4]: 0.063 µg/mL
- MIC [5]: 0.25 µg/mL

Structure (SMILES): CC(C)(O/N=C(\C(=O)N[C@@H]1C(=O)N2C(c3nnn[nH]3)=C(C[N+]3(CCN4C(=O)c5ccc(O)c(O)c5C4=O)CCCC3)CS[C@H]12)c1nc(N)sc1Cl)C(=O)[O-] [Compound I-14]
- MIC [1]: ≤ 0.031 µg/mL
- MIC [2]: 0.063 µg/mL (≈ 0.0785 µM)
- MIC [3]: 0.5 µg/mL (≈ 0.623 µM)
- MIC [4]: ≤ 0.031 µg/mL
- MIC [5]: 0.125 µg/mL (≈ 0.156 µM)

Structure (SMILES): CC[N+](CC)(CCN1C(=O)c2ccc(O)c(O)c2C1=O)CC1=C(c2nn[nH]n2)N2C(=O)[C@@H](NC(=O)/C(=N\OC(C)(C)C(=O)O)c3csc(N)n3)[C@H]2SC1.[Na+] [Compound I-19]
- MIC [1]: 0.063 µg/mL
- MIC [2]: 0.063 µg/mL
- MIC [3]: 0.5 µg/mL
- MIC [4]: ≤ 0.031 µg/mL
- MIC [5]: 0.25 µg/mL

Structure (SMILES): CC(C)(O/N=C(\C(=O)N[C@@H]1C(=O)N2C(C(=O)[O-])=C(C[N+]34CCC(Cn5ncc6cc(O)c(O)cc6c5=O)(CC3)C4)CS[C@H]12)c1csc(N)n1)C(=O)[O-].[Na+] [Compound I-22]
- MIC [1]: ≤ 0.031 µg/mL
- MIC [2]: 0.125 µg/mL
- MIC [3]: 1 µg/mL
- MIC [4]: ≤ 0.031 µg/mL
- MIC [5]: 1 µg/mL

Structure (SMILES): CC[N+](CC)(CCN1C(=O)c2ccc(O)c(O)c2C1=O)CC1=C(C(=O)[O-])N2C(=O)[C@@H](NC(=O)/C(=N\O[C@@H](CC(=O)[O-])C(=O)[O-])c3csc(N)n3)[C@H]2SC1.[Na+].[Na+] [Compound I-18]
- MIC [1]: 0.063 µg/mL
- MIC [2]: 0.063 µg/mL
- MIC [3]: 0.5 µg/mL
- MIC [4]: ≤ 0.031 µg/mL
- MIC [5]: 0.25 µg/mL

Structure (SMILES): CC(C)(O/N=C(\C(=O)N[C@@H]1C(=O)N2C(C(=O)O)=C(C[N+]3(Cc4noc5cc(O)c(O)cc45)CCCC3)CS[C@H]12)c1csc(N)n1)C(=O)[O-] [Compound I-9]
- MIC [1]: 0.125 µg/mL (≈ 0.178 µM)
- MIC [2]: 0.25 µg/mL (≈ 0.356 µM)
- MIC [3]: 4 µg/mL (≈ 5.7 µM)
- MIC [4]: 0.063 µg/mL (≈ 0.0898 µM)
- MIC [5]: 0.5 µg/mL (≈ 0.713 µM)

Structure (SMILES): CC(C)(O/N=C(\C(=O)N[C@@H]1C(=O)N2C(C(=O)[O-])=C(C[N+]34CCC(CNC(=O)C(=O)c5cc(O)c(O)c(F)c5)(CC3)CC4)CS[C@H]12)c1csc(N)n1)C(=O)[O-].[Na+] [Compound I-20]
- MIC [1]: 0.063 µg/mL
- MIC [2]: 0.25 µg/mL
- MIC [3]: 2 µg/mL
- MIC [4]: ≤ 0.031 µg/mL
- MIC [5]: 4 µg/mL

Structure (SMILES): CC(C)(O/N=C(\C(=O)N[C@@H]1C(=O)N2C(C(=O)O)=C(C[N+]3(CCN4C(=O)c5c(Cl)cc(O)c(O)c5C4=O)CCCC3)CS[C@H]12)c1csc(N)n1)C(=O)[O-] [Compound I-3]
- MIC [1]: 0.125 µg/mL (≈ 0.161 µM)
- MIC [2]: 0.125 µg/mL (≈ 0.161 µM)
- MIC [4]: 0.063 µg/mL (≈ 0.081 µM)
- MIC [5]: 0.25 µg/mL (≈ 0.321 µM)

Structure (SMILES): CC(C)(O/N=C(\C(=O)N[C@@H]1C(=O)N2C(c3nnn[nH]3)=C(C[N+]3(CCN4C(=O)c5ccc(O)c(O)c5C4=O)CCCC3)CS[C@H]12)c1csc(N)n1)C(=O)[O-] [Compound I-11]
- MIC [1]: 0.063 µg/mL (≈ 0.0821 µM)
- MIC [2]: 0.125 µg/mL (≈ 0.163 µM)
- MIC [3]: 0.5 µg/mL (≈ 0.651 µM)
- MIC [4]: ≤ 0.031 µg/mL
- MIC [5]: 0.063 µg/mL (≈ 0.0821 µM)

Structure (SMILES): CC[N+](CC)(CCN1C(=O)c2ccc(O)c(O)c2C1=O)CC1=C(C(=O)[O-])N2C(=O)[C@@H](NC(=O)/C(=N\OC(C)(C)C(=O)[O-])c3csc(N)n3)[C@H]2SC1.[Na+] [Compound I-17]
- MIC [1]: 0.063 µg/mL
- MIC [2]: 0.063 µg/mL
- MIC [3]: 0.5 µg/mL
- MIC [4]: ≤ 0.031 µg/mL
- MIC [5]: 0.5 µg/mL

Structure (SMILES): CC(C)(O/N=C(\C(=O)N[C@@H]1C(=O)N2C(C(=O)O)=C(C[N+]3(CCN4C(=O)c5ccc(O)c(O)c5C4=O)CCCCC3)CS[C@H]12)c1csc(N)n1)C(=O)[O-] [Compound I-7]
- MIC [1]: 0.063 µg/mL (≈ 0.0831 µM)
- MIC [2]: 0.125 µg/mL (≈ 0.165 µM)
- MIC [3]: 0.5 µg/mL (≈ 0.66 µM)
- MIC [4]: ≤ 0.031 µg/mL
- MIC [5]: 0.25 µg/mL (≈ 0.33 µM)
